PubChem BioAssay (NCI)
Where “and” joins values, the source holds several entries; their conditions need not be identical. Identical values can stand only once.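 Compound exposure: 48 hours, 5 concentrations, 96-well plates. GI50: concentration for 50% inhibition of growth. TGI denotes the concentration required for complete inhibition of growth.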

Columns and labels:
Assay in all cases: NCI tumour cell line growth inhibition, 48 h
ACHN renal = tested on: ACHN renal
CAKI-1 renal = tested on: CAKI-1 renal
DU-145 prostate = tested on: DU-145 prostate
HOP-62 NSCLC = tested on: HOP-62 NSCLC
M14 melanoma = tested on: M14 melanoma
MDA-MB-231 breast = tested on: MDA-MB-231 breast
NCI-H23 lung = tested on: NCI-H23 lung
NCI-H522 lung = tested on: NCI-H522 lung
RPMI-8226 leukemia = tested on: RPMI-8226 leukemia
TK-10 renal = tested on: TK-10 renal

| Structure (SMILES) | GI50 (ACHN renal) | TGI (ACHN renal) | GI50 (CAKI-1 renal) | TGI (CAKI-1 renal) | GI50 (DU-145 prostate) | TGI (DU-145 prostate) | GI50 (HOP-62 NSCLC) | TGI (HOP-62 NSCLC) | GI50 (M14 melanoma) | TGI (M14 melanoma) | GI50 (MDA-MB-231 breast) | TGI (MDA-MB-231 breast) | GI50 (NCI-H23 lung) | TGI (NCI-H23 lung) | GI50 (NCI-H522 lung) | TGI (NCI-H522 lung) | GI50 (RPMI-8226 leukemia) [µM] | TGI (RPMI-8226 leukemia) | GI50 (TK-10 renal) | TGI (TK-10 renal) |
| --- | --- | --- | --- | --- | --- | --- | --- | --- | --- | --- | --- | --- | --- | --- | --- | --- | --- | --- | --- | --- |
| O=C(Nc1ccc(I)cc1)c1cccc([N+](=O)[O-])c1O | 4.16 µM | > 100 µM | 2.91 µM | > 100 µM | 6.46 µM | > 100 µM | 6.93 µM | > 100 µM | 3.54 µM | 49.5 µM | 6.03 µM | > 100 µM | 2.26 µM | 8 µM | 2.61 µM | 31.1 µM | 1.66 | 6.73 µM | 3.56 µM | > 100 µM |
| O=C(/C=C/c1cccc(S(=O)(=O)Nc2ccccc2)c1)NO | 0.429 µM and 0.422 µM | 3.22 µM and 8.44 µM | 0.401 µM and 0.462 µM | 2.48 µM and 1.86 µM | 0.444 µM and 0.111 µM | 17.8 µM | 0.529 µM and 0.325 µM | 13.1 µM and 5.34 µM | 0.451 µM and 0.441 µM | 12.9 µM and 12.5 µM | 0.577 µM and 0.216 µM | 19.9 µM and 5.63 µM | 0.707 µM and 0.112 µM | 7.47 µM and 2.69 µM | 0.191 µM and 0.0603 µM | 1.98 µM and 17.2 µM | 0.248 | – | 0.215 µM and 0.024 µM | 3.19 µM and 1.73 µM |
| COc1ccc(/C=C/C(=O)c2ccc(Nc3nc(Nc4ccc(F)cc4)nc(Nc4ccc(Cl)cc4)n3)cc2)cc1 | > 100 µM | > 100 µM | 69.6 µM | > 100 µM | > 100 µM | > 100 µM | > 100 µM | > 100 µM | > 100 µM | > 100 µM | 29.5 µM | > 100 µM | > 100 µM | > 100 µM | 36.7 µM | > 100 µM | 6.91 | > 100 µM | > 100 µM | > 100 µM |
| C=C1C(=O)OC2CC1C(OC(C)=O)C/C(C)=C/CC/C(C)=C\CCC2(C)O (stereo not given) | – | 14.9 µM and 7.78 µM | – | 14.2 µM and 9.91 µM | – | 14.6 µM and 23.1 µM | – | 35.4 µM and 31.7 µM | – | > 36.9 µM and 29.6 µM | – | 22.5 µM and 22.2 µM | 7.77 µM and 1.84 µM | 22.4 µM and 4.44 µM | – | 3.16 µM and 3.13 µM | – | 7.9 µM and 7.55 µM | – | 12.4 µM and 16.1 µM |
| N#C/C(=C\c1ccc(F)cc1)n1nc2cccc(F)c2n1 | 5.41 µM | > 100 µM | 5.17 µM | > 100 µM | 3.2 µM | > 100 µM | 3.54 µM | > 100 µM | 3.27 µM | > 100 µM | 5.55 µM | > 100 µM | 3.9 µM | > 100 µM | 3.24 µM | > 100 µM | 3.09 | 87.1 µM | 7.01 µM | > 100 µM |
| O=C(Cc1ccc(Nc2ccnc(C(F)(F)F)c2)cc1)N/N=C/c1ccccc1O | 1.46 µM | > 51.4 µM | 1.35 µM | 13 µM | 3.17 µM | > 58.1 µM | 3.08 µM | > 48.6 µM | 1.82 µM | 19.5 µM | 2.55 µM | > 74.9 µM | 4.23 µM | > 59.1 µM | 8.96 µM | 35.9 µM | 0.824 | 16.2 µM | 4.43 µM | > 45.3 µM |
| NS(=O)(=O)c1ccc(N=C2C(=O)Nc3ccccc32)cc1 | – | > 100 µM | – | > 100 µM | – | > 100 µM | – | > 100 µM | – | > 100 µM | – | > 100 µM | – | > 100 µM | – | > 100 µM | – | > 100 µM | – | > 100 µM |
| Cc1cc(=O)oc2cc(OC(=O)Nc3ccccc3)ccc12 | – | > 100 µM | – | > 100 µM | – | > 100 µM | – | > 100 µM | – | > 100 µM | – | > 100 µM | – | > 100 µM | – | > 100 µM | – | 62.4 µM | – | > 100 µM |
| O=C1/C(=C\c2ccccc2)CN(C(=O)c2ccccc2)C/C1=C\c1ccccc1 | 1.73 µM | 3.33 µM | 2.74 µM | 11.1 µM | 5.02 µM | 16.4 µM | 3.21 µM | 10.7 µM | 2.1 µM | 4.79 µM | 2.2 µM | 5.02 µM | 3.62 µM | 12.4 µM | 2.29 µM | 5.27 µM | 0.238 | 0.747 µM | 2.83 µM | 9.06 µM |
